The values that follow come from patent US20260167622A1, “PAN-KRAS DEGRADING AGENT, AND PREPARATION METHOD THEREFOR AND USE THEREOF” (LEADINGTAC PHARMACEUTICAL (SHAOXING) CO., LTD., priority 2022, published 2026).

What all share (assay type): cell-based
Assay [1] deals with T1, KRAS G12V protein in SW900 cells (Homo sapiens, UniProt P01116, G12V).
T1 construct: endogenous in cells; host or cells: SW900
Nature of the assay: KRAS degradation assay (Western Blot) in SW900 cells. Particulars: 24 h. In outline: (§1)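 AsPc-1, A427, DLD-1 and SW900 cells (5×10^5/well) were treated 24 h at 37 °C with compound at 0.03-3000 nM final (0.25% DMSO). KRAS in lysates was detected by Western blot (5 μg protein, ECL), normalized to β-actin and compared with control to derive DC50 and Dmax.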

Assay [2] has as its target T2, KRAS WT (expanded) protein in MKN1 cells (Homo sapiens, UniProt P01116).
T2 construct: endogenous in cells; host or cells: MKN1 (MKN-1)
Kind of assay: KRAS degradation assay (Western Blot) in MKN1 cells. The note with it: for DC50: 24 h; for Dmax: MKN-1, 24 h. In outline:
(§2)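 Western blot read-out: KRAS band gray value divided by β-actin, compared with DMSO control to give degradation rate. DC50 and Dmax came from log concentration–response fits after 24 h compound exposure (0.03–3000 nM final, 0.25% DMSO) at 37 °C, 5% CO2.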
For orientation: In western blotting, separated proteins are transferred to a membrane and probed.

The target in assay [3] is T3, KRAS G12V protein in SW620 cells (Homo sapiens, UniProt P01116, G12V).
T3 construct: endogenous in cells; host or cells: SW620
Nature of the assay: KRAS degradation assay (Western Blot) in SW620 cells. The note with it: for DC50: 24 h; for Dmax: SW-620, 24 h. In outline:
as §2

The target in assay [4] is T4, KRAS G12C protein in NCI-H358 cells (Homo sapiens, UniProt P01116, G12C).
T4 construct: endogenous in cells; host or cells: NCI-H358
Nature of the assay: KRAS degradation assay (Western Blot) in NCI-H358 cells. The note with it: 24 h. An outline of the steps: as §2

The target in assay [5] is T5, KRAS G12D protein in A427 cells (Homo sapiens, UniProt P01116, G12D).
T5 construct: endogenous in cells; host or cells: A427
Kind of assay: KRAS degradation assay (Western Blot) in A427 cells. Particulars: for DC50: 24 h; for Dmax: A-427, 24 h. The text has this: Test Example 5: KRAS G12C, KRAS G12D, KRAS G12V, KRAS G13D, and KRAS WT (Expanded) Degradation Assays
The degradation effect of the compounds on KRAS was investigated on KRAS G12C mutant human non-small cell lung cancer cell NCI-H358, KRAS G12D mutant human metastatic pancreatic cancer cell AsPc-1, KRAS G12D mutant human lung cancer cell A427, KRAS G12V mutant human colorectal cancer cell SW620, KRAS G12V mutant human lung cancer cell SW900, KRAS G13D mutant human colorectal cancer epithelial cell DLD-1, and KRAS WT human gastric cancer cell MKN-1. The specific procedures were as follows: 0.95 mL of cells were seeded into each well of a 24-well cell culture plate to achieve a cell density of 5×10^5 cells/well; and the cell plate was incubated in an incubator at 37° C. with 5% CO2 overnight. Then 50 μL of the compound solution after dilution was added to each of the wells with the corresponding cells, so that the final concentration of the compound was in a range of 0.03-3000 nM. The final concentration of DMSO was 0.25%. After the compounds were added, the cell plate was incubated in an incubator at 37° C. with 5% CO2 for 24 h. The culture medium in the 24-well cell culture plate was then removed, and the plate was washed twice with 1×PBS (KeyGEN). 120 μL of RIPA (strong) lysis buffer (Beyotime) (supplemented with 1 mM phenylmethylsulfonyl fluoride, a protease inhibitor mixture (Beyotime), and a protease phosphatase inhibitor mixture (Beyotime)) was added to lyse adherent SW900 cells at the bottom of the cell culture plate. After the plate was left to stand on ice for 30 min, the protein lysate in each well was transferred to a 1.5 mL centrifuge tube and centrifuged at 15000 g for 20 min at 4° C. The cell lysate supernatants after centrifugation were cryopreserved in a refrigerator at −80° C. for later use.
After the samples of the cell lysate supernatants that had been prepared were thawed from the refrigerator at −80° C., the total protein concentrations of the cell lysates were determined using a BCA protein quantification kit (Tiangen). The total protein concentrations of the samples were then adjusted to 0.5 μg/μL with PBS and 5×SDS-PAGE protein loading buffer (Beyotime), and the samples were incubated in a water bath at 100° C. for 15 min. The samples were then incubated in an ice bath for 5 min and centrifuged at 14000 g for 1 min at 4° C., and the supernatants were mixed well as loading samples for the Western Blot assay. The samples were loaded into wells of a 10% precast gel (KeyGEN) with a loading volume of 10 μL (total protein: 5 μg), a sufficient Tris-MOPS-SDS running buffer (Adamas) was added, and then electrophoresis was performed at a constant voltage of 120 V for 55 min. After the electrophoresis, the proteins on the gel were transferred to PVDF membranes at a constant current of 250 mA for 55 min. After the membrane transfer, the PVDF membranes were incubated in 1× Quick Block blocking buffer (Beyotime)at room temperature for 30 min. After the blocking, the PVDF membranes were separately incubated at 4° C. overnight with the KRAS antibody (Abcam) diluted in a ratio of 1:1000 and the β-actin antibody (Abcam) diluted in a ratio of 1:2000 in 5% BSA as the diluent, and then washed with 1×TBST buffer (2.4 g of Tris, 8.8 g of NaCl, 1.5 mL of Tween 20, with pH adjusted to 7.4, with the volume brought to 1 L) 3 times for 10 min/time. The membranes were incubated with a secondary antibody (Abcam) diluted in 5% BSA at room temperature for 2 h, and then washed with 1×TBST buffer 3 times for 10 min/time. Finally, the membranes were incubated with Clarity Western ECL Substrate (BIO-RAD) for 5 min for luminescence and color development, and a ChemiScope 6200 Touch chemiluminescence imaging system (Clinx) was used for color development and protein mapping. Gray value analysis of the protein maps was performed using the chemiluminescence analysis software (Clinx). […]

Assay [6] addresses T6, KRAS G12D protein in AsPc-1 cells (Homo sapiens, UniProt P01116, G12D).
T6 construct: endogenous in cells; host or cells: AsPc-1
Nature of the assay: KRAS degradation assay (Western Blot) in AsPc-1 cells. Particulars: for DC50: 24 h; for Dmax: ASPC1, 24 h. In outline: as §1

In assay [7] the target is T7, KRAS G13D protein in DLD-1 cells (Homo sapiens, UniProt P01116, G13D).
T7 construct: endogenous in cells; host or cells: DLD-1
Kind of assay: KRAS degradation assay (Western Blot) in DLD-1 cells. The note with it: 24 h. An outline of the steps:
as §1

T6 sequence (P01116 1-188 isoform P01116-2 G12D): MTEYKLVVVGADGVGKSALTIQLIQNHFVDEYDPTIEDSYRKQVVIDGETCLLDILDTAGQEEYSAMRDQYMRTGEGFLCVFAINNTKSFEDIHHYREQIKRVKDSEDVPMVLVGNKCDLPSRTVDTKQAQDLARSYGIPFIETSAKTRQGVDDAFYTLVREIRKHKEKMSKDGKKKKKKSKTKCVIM
T5 sequence (P01116 1-188 isoform P01116-2 G12D): as above
T3 sequence (P01116 1-188 isoform P01116-2 G12V): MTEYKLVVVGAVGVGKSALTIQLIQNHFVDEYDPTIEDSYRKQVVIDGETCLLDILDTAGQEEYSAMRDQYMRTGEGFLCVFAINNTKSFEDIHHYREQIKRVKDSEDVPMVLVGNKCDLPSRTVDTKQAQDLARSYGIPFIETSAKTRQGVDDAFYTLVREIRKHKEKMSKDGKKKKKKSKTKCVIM
T1 sequence (P01116 1-188 isoform P01116-2 G12V): as above
T2 sequence (P01116 1-188 isoform P01116-2): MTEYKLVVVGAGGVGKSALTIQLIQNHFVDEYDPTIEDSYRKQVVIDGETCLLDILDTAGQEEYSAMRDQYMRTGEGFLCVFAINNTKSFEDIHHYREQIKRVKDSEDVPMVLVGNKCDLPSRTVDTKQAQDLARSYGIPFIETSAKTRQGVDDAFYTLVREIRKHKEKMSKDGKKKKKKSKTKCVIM
T7 sequence (P01116 1-188 isoform P01116-2 G13D): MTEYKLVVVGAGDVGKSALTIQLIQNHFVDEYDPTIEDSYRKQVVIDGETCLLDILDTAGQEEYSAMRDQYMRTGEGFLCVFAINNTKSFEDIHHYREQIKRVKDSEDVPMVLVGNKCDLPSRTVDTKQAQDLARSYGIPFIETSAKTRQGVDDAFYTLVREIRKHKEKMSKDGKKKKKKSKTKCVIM
T4 sequence (P01116 1-188 isoform P01116-2 G12C): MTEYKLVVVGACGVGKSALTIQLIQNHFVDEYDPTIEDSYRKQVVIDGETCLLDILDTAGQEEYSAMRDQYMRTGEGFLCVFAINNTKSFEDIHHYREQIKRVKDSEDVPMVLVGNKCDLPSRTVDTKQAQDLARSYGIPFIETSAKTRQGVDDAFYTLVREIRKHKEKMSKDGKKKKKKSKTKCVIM

Turning to `C#Cc1c(F)ccc2cc(O)cc(-c3ncc4c(N5CCC[C@@](C)(O)C5)nc(OCC5(CN6CCN(CC7CCC8(CC7)CCN(C(=O)c7ccc(Cl)c(N9CCC(=O)NC9=O)c7)CC8)CC6)CC5)nc4c3F)c12` [Example 1, (R)-1-(2-chloro-5-(9-((4-((1-(((7-(8-ethynyl-7-fluoro-3-hydroxynaphthalen-1-yl)-8-fluoro-4-(3-hydroxy-3-methylpiperidin-1-yl)pyrido[4,3-d]pyrimidin-2-yl)oxy)methyl)cyclopropyl)methyl)piperazin-1-yl)methyl)-3-azaspiro[5.5]undecane-3-carbonyl)phenyl)dihydropyrimidine-2,4(1H,3H)-dione], the DC50 in assay [1] was ≤ 50 nM; in assay [2], ≤ 50 nM; in assay [3] it was 2.67 nM; in assay [4], ≤ 50 nM; in assay [5], ≤ 50 nM; in assay [6], ≤ 50 nM. In assay [7], the DC50 was ≤ 50 nM. The Dmax in assay [1] is 80 to 100%; in assay [2], 80 to 100%; in assay [3], 100%; in assay [4], 80 to 100%; in assay [5], 80 to 100%; in assay [6], 80 to 100%. Besides, the greatest degradation seen (Dmax) in assay [7] was 80 to 100%.

Regarding `CCc1c(F)ccc2cc(O)cc(-c3ncc4c(N5CCC[C@@](C)(O)C5)nc(OCC5(CN6CCN(CC7CCC8(CC7)CCN(C(=O)c7ccc(Cl)c(N9CCC(=O)NC9=O)c7)CC8)CC6)CC5)nc4c3F)c12` [Example 2, (R)-1-(2-chloro-5-(9-((4-((1-(((7-(8-ethyl-7-fluoro-3-hydroxynaphthalen-1-yl)-8-fluoro-4-(3-hydroxy-3-methylpiperidin-1-yl)pyrido[4,3-d]pyrimidin-2-yl)oxy)methyl)cyclopropyl)methyl)piperazin-1-yl)methyl)-3-azaspiro[5.5]undecane-3-carbonyl)phenyl)dihydropyrimidine-2,4(1H,3H)-dione], in assay [1], the DC50 was ≤ 50 nM and the Dmax fell in the range of 80 to 100%.

Regarding `CCc1cccc2cc(O)cc(-c3ncc4c(N5CCC[C@@](C)(O)C5)nc(OCC5(CN6CCN(CC7CCC8(CC7)CCN(C(=O)c7ccc(Cl)c(N9CCC(=O)NC9=O)c7)CC8)CC6)CC5)nc4c3F)c12` [Example 3, (R)-1-(2-chloro-5-(9-((4-((1-(((7-(8-ethyl-3-hydroxynaphthalen-1-yl)-8-fluoro-4-(3-hydroxy-3-methylpiperidin-1-yl)pyrido[4,3-d]pyrimidin-2-yl)oxy)methyl)cyclopropyl)methyl)piperazin-1-yl)methyl)-3-azaspiro[5.5]undecane-3-carbonyl)phenyl)dihydropyrimidine-2,4(1H,3H)-dione], the DC50 in assay [1], in assay [2], in assay [4], in assay [5], in assay [6] and in assay [7] was ≤ 50 nM each time. Also, the Dmax in assay [1], in assay [2], in assay [4], in assay [5], in assay [6] and in assay [7] was 80 to 100% each time.

Consider `C#Cc1c(F)ccc2cc(O)cc(-c3ncc4c(N5CCC[C@@](C)(O)C5)nc(OCC5(CN6CCN(CC7CCC8(CC7)CCN(C(=O)c7ccc(C)c(N9CCC(=O)NC9=O)c7)CC8)CC6)CC5)nc4c3F)c12` [Example 6, (R)-1-(5-(9-((4-((1-(((7-(8-ethynyl-7-fluoro-3-hydroxynaphthalen-1-yl)-8-fluoro-4-(3-hydroxy-3-methylpiperidin-1-yl)pyrido[4,3-d]pyrimidin-2-yl)oxy)methyl)cyclopropyl)methyl)piperazin-1-yl)methyl)-3-azaspiro[5.5]undecane-3-carbonyl)-2-methylphenyl)dihydropyrimidine-2,4(1H,3H)-dione], for which the DC50 in assay [1] was ≤ 50 nM; in assay [2], ≤ 50 nM; in assay [3], 3.56 nM; in assay [4], ≤ 50 nM; in assay [5], ≤ 50 nM; in assay [6], ≤ 50 nM. For the same molecule, in assay [7], the DC50 is ≤ 50 nM. Further, the Dmax in assay [1] was 80 to 100%; in assay [2], 80 to 100%; in assay [3] it was 99.1%; in assay [4], 80 to 100%; in assay [5] it was 80 to 100%; in assay [6], 80 to 100%. In assay [7], this molecule displayed a Dmax of 80 to 100%.

For `C#Cc1c(F)ccc2cc(O)cc(-c3ncc4c(N5CCC[C@@](C)(O)C5)nc(OCC5(CN6CCN(CC7CCC8(CC7)CCN(C(=O)c7ccc(OC)c(N9CCC(=O)NC9=O)c7)CC8)CC6)CC5)nc4c3F)c12` [Example 7, (R)-1-(5-(9-((4-((1-(((7-(8-ethynyl-7-fluoro-3-hydroxynaphthalen-1-yl)-8-fluoro-4-(3-hydroxy-3-methylpiperidin-1-yl)pyrido[4,3-d]pyrimidin-2-yl)oxy)methyl)cyclopropyl)methyl)piperazin-1-yl)methyl)-3-azaspiro[5.5]undecane-3-carbonyl)-2-methoxyphenyl)dihydropyrimidine-2,4(1H,3H)-dione], the half-maximal degradation concentration (DC50) in assay [1] is ≤ 50 nM; in assay [2], ≤ 50 nM; in assay [3], 0.62 nM; in assay [4] it was ≤ 50 nM; in assay [5] it was ≤ 50 nM; in assay [6] it was ≤ 50 nM. For the same molecule, the 50% degradation concentration (DC50) in assay [7] is ≤ 50 nM. The Dmax was 80 to 100% in assay [1]; 80 to 100% in assay [2]; 100% in assay [3]; 80 to 100% in assay [4]; 80 to 100% in assay [5]; 80 to 100% in assay [6]. The molecule also yielded a Dmax in assay [7] of 80 to 100%.

As for `C#Cc1cccc2cc(O)cc(-c3ncc4c(N5CCC[C@@](C)(O)C5)nc(OCC5(CN6CCN(CC7CCC8(CC7)CCN(C(=O)c7ccc(Cl)c(N9CCC(=O)NC9=O)c7)CC8)CC6)CC5)nc4c3F)c12` [Example 11, (R)-1-(2-chloro-5-(9-((4-((1-(((7-(8-ethynyl-3-hydroxynaphthalen-1-yl)-8-fluoro-4-(3-hydroxy-3-methylpiperidin-1-yl)pyrido[4,3-d]pyrimidin-2-yl)oxy)methyl)cyclopropyl)methyl)piperazin-1-yl)methyl)-3-azaspiro[5.5]undecane-3-carbonyl)phenyl)dihydropyrimidine-2,4(1H,3H)-dione], in assay [1], the 50% degradation concentration (DC50) was ≤ 50 nM and the Dmax lay within 80 to 100%.

The DC50 is the concentration at which degradation of the target reaches its halfway point. A high value points to degradation only at high concentration. One may read the Dmax as the largest share of the target that was removed. A high value points to a fuller loss of target.
